In PMC8286840, “Identifying SARS-CoV-2 antiviral compounds by screening for small molecule inhibitors of Nsp3 papain-like protease” (Biochemical Journal, 2021) one finds remaining activity data, which are given here for 28 molecules.

Assay [1] has as its target T1, SARS-CoV-2 PLpro (nsp3 1564–1878) (Severe acute respiratory syndrome coronavirus 2, UniProt P0DTD1). The assay is described as follows: biochemical. Further details: FRET-quenched peptide (Pro3) cleavage by PLpro, 10 min pre-incubation, slope over 20 min, normalised to no-compound control. The conditions noted are these: low concentration screen.
For assay [2], the target named is T1, SARS-CoV-2 PLpro (nsp3 1564–1878). The assay is described as follows: biochemical. More on the design: FRET-quenched peptide (Pro3) cleavage by PLpro, 10 min pre-incubation, slope over 20 min, normalised to no-compound control. To be noted: high concentration screen.
The mark [3] stands for this setting: Well no.=4432, read-out: % of control remaining.
The mark [4] stands for this setting: Well no.=6541, read-out: % of control remaining.
Setting [5] is: read-out: % of control remaining, Well no.=1861.
Where [6] appears, read: read-out: % of control remaining, Well no.=6467.
[7] abbreviates: Well no.=4745, read-out: % of control remaining.
Where [8] appears, read: Well no.=6475, read-out: % of control remaining.
[9] abbreviates: Well no.=429, read-out: % of control remaining.
[10] abbreviates: Well no.=4911, read-out: % of control remaining.
[11] abbreviates: Well no.=1111, read-out: % of control remaining.
The mark [12] stands for this setting: Well no.=3155, read-out: % of control remaining.
Where [13] appears, read: Well no.=5200, read-out: % of control remaining.
Setting [14] is: Well no.=559, read-out: % of control remaining.
The mark [15] stands for this setting: Well no.=2038, read-out: % of control remaining.
[16] abbreviates: Well no.=6445, read-out: % of control remaining.
Where [17] appears, read: Well no.=5868, read-out: % of control remaining.
[18] abbreviates: Well no.=598, read-out: % of control remaining.
Where [19] appears, read: Well no.=6267, read-out: % of control remaining.
[20] abbreviates: Well no.=6799, read-out: % of control remaining.
Where [21] appears, read: Well no.=6469, read-out: % of control remaining.
Where [22] appears, read: Well no.=2389, read-out: % of control remaining.
Where [23] appears, read: Well no.=6588, read-out: % of control remaining.
Setting [24] is: Well no.=2249, read-out: % of control remaining.
The mark [25] stands for this setting: Well no.=5216, read-out: % of control remaining.
Setting [26] is: Well no.=7759, read-out: % of control remaining.
The mark [27] stands for this setting: Well no.=5590, read-out: % of control remaining.
[28] abbreviates: Well no.=7161, read-out: % of control remaining.
[29] abbreviates: Well no.=7542, read-out: % of control remaining.
Where [30] appears, read: Well no.=8247, read-out: % of control remaining.
Where [31] appears, read: Well no.=6149, read-out: % of control remaining.
The mark [32] stands for this setting: Well no.=6502, read-out: % of control remaining.
Where [33] appears, read: Well no.=8460, read-out: % of control remaining.
Where [34] appears, read: Well no.=1121, read-out: % of control remaining.
[35] abbreviates: Well no.=2397, read-out: % of control remaining.

Counter-ions that a name gives are not always drawn. Like-named read-outs stand apart in the source and are kept apart here.

In the case of `CC1=C(/C=C/C(C)=C/C=C/C(C)=C/C(=O)Nc2ccc(O)cc2)C(C)(C)CCC1` [4-Hydroxyphenylretinamide], the remaining activity at 1.25 µM in assay [1] (setting [3]) amounted to 99%. The remaining activity at 3.75 µM in assay [2] (setting [3]) turned out to be 97.3%.
For the molecule `NCCc1ccc(O)cc1` [Tyramine], the remaining activity at 1.25 µM in assay [1] (setting [4]) came out at 107%. In assay [2] (setting [4]), the remaining activity at 3.75 µM was determined as 101%.
In the case of `C[C@@H]1C[C@H]2[C@@H]3CCC4=CC(=O)C=C[C@]4(C)[C@@]3(F)[C@@H](O)C[C@]2(C)[C@@]1(O)C(=O)CO` [Dexamethasone], the remaining activity at 1.25 µM amounted to 99.1% in assay [1] (setting [5]) and 96.6% in assay [1] (setting [6]). For the same molecule, the remaining activity at 3.75 µM in assay [2] (setting [5]) came out at 100%; in assay [2] (setting [6]), 98.7%.
`CCN(C(=O)c1c(O)c2c(Cl)cccc2n(C)c1=O)c1ccccc1` [Laquinimod (ABR-215062)]: the remaining activity at 1.25 µM in assay [1] (setting [7]) worked out at 105%. Moreover, the remaining activity at 3.75 µM in assay [2] (setting [7]) came out at 107%.
On to `CCCCC[C@H](O)/C=C/[C@@H]1[C@@H](C/C=C\CCCC(=O)O)[C@@H](O)C[C@H]1O` [Dinoprost (tromethamine salt)], for which, in assay [1] (setting [8]), the remaining activity at 1.25 µM stood at 104%. The remaining activity at 3.75 µM in assay [2] (setting [8]) amounted to 105%.
Take `NC(N)=NCCSSCCN=C(N)N` [Guanidinoethyl disulfide dihydrobromide]: in assay [1] (setting [9]), the remaining activity at 1.25 µM is 89.1%. For the same molecule, the remaining activity at 3.75 µM in assay [2] (setting [9]) was 88.8%.
On to `CC(=O)Nc1nc(C)c(-c2ccc(Cl)c(S(=O)(=O)NCCO)c2)s1` [PIK-93], for which the remaining activity at 1.25 µM in assay [1] (setting [10]) is 95.7%. Further, the remaining activity at 3.75 µM in assay [2] (setting [10]) amounted to 96.9%.
On to `Cc1cc(C)c(NC(=O)C[C@H](CC(=O)O)c2cccc3ccccc23)c(C(=O)N2CCC3(CCCC3)CC2)c1` [CR 2945], for which the remaining activity at 1.25 µM in assay [1] (setting [11]) was found to be 105%. Also, in assay [2] (setting [11]), the remaining activity at 3.75 µM came out at 98.1%.
For the molecule `C[C@H]1CC[C@@H]2N(C1)C[C@H]1[C@@H]3C[C@H]4[C@@H](CC(=O)[C@H]5C[C@@H](O)CC[C@@]54C)[C@@H]3CC[C@H]1[C@]2(C)O` [Imperialine], the remaining activity at 1.25 µM in assay [1] (setting [12]) was 93.8%. In addition, the remaining activity at 3.75 µM in assay [2] (setting [12]) worked out at 101%.
`COc1ccc(-c2oc3c(CC=C(C)C)c(O[C@@H]4O[C@H](CO)[C@@H](O)[C@H](O)[C@H]4O)cc(O)c3c(=O)c2O[C@@H]2O[C@@H](C)[C@H](O)[C@@H](O)[C@H]2O)cc1` [Icariin]: the remaining activity at 1.25 µM in assay [1] (setting [13]) is 99.9%. In assay [2] (setting [13]), the remaining activity at 3.75 µM was 100%.
Consider `C[C@]12CC[C@@H]3c4ccc(O)cc4CC[C@H]3[C@@H]1CCC2=O` [Estrone], for which the remaining activity at 1.25 µM in assay [1] (setting [14]) is 101%; in assay [1] (setting [15]) it was 103%; in assay [1] (setting [16]) it was 102%. The remaining activity at 3.75 µM in assay [2] (setting [14]) worked out at 98.9%; in assay [2] (setting [15]), 104%; in assay [2] (setting [16]), 96%.
`C[C@H](CCC(=O)O)[C@H]1CC[C@H]2[C@@H]3C[C@H](O)[C@@H]4C[C@H](O)CC[C@]4(C)[C@H]3CC[C@]12C` [Hyodeoxycholic acid]: the remaining activity at 1.25 µM in assay [1] (setting [17]) was determined as 103%. Also, the remaining activity at 3.75 µM in assay [2] (setting [17]) is 101%.
Turning to `CCN(N=O)c1ccc(O)c(O)c1` [ET-3,4-dephostatin], the remaining activity at 1.25 µM in assay [1] (setting [18]) was 100%. In assay [2] (setting [18]), the remaining activity at 3.75 µM was determined as 102%.
`Oc1ccc(C2CNCCc3c2cc(O)c(O)c3Cl)cc1` (stereo not drawn) [Fenoldopam (mesylate)]: the remaining activity at 1.25 µM in assay [1] (setting [19]) stood at 106%. In addition, in assay [2] (setting [19]), the remaining activity at 3.75 µM worked out at 103%.
Regarding `CN(C)CCC(c1ccccc1)c1ccccn1` (stereo not drawn) [Pheniramine (Maleate)], in assay [1] (setting [20]), the remaining activity at 1.25 µM is 99.4%. In addition, the remaining activity at 3.75 µM in assay [2] (setting [20]) was 90%.
As for `CCNC(=O)[C@@H]1CCCN1C(=O)[C@H](CCCNC(=N)N)NC(=O)[C@H](CC(C)C)NC(=O)[C@@H](CC(C)C)NC(=O)[C@H](Cc1ccc(O)cc1)NC(=O)[C@H](CO)NC(=O)[C@H](Cc1c[nH]c2ccccc12)NC(=O)[C@H](Cc1c[nH]cn1)NC(=O)[C@@H]1CCC(=O)N1` [Leuprolide (Acetate)], the remaining activity at 1.25 µM in assay [1] (setting [21]) worked out at 104%. Besides, in assay [2] (setting [21]), the remaining activity at 3.75 µM was 104%.
For the molecule `Nc1nc(O)c(C2=C3C(=Nc4ccccc43)C(=O)NCC2)[nH]1` [Chk2 Inhibitor], the remaining activity at 1.25 µM in assay [1] (setting [22]) is 103%. Also, the remaining activity at 3.75 µM in assay [2] (setting [22]) came to 103%.
Regarding `O=C(c1ccccc1O)c1[nH]c(Cl)c(Cl)c1-n1c(C(=O)c2ccccc2O)cc(Cl)c1Cl` [Maritoclax], the remaining activity at 1.25 µM in assay [1] (setting [23]) stood at 101%. For the same molecule, the remaining activity at 3.75 µM in assay [2] (setting [23]) came to 99.2%.
On to `CC(C)CC(N(C)C)C1(c2ccc(Cl)cc2)CCC1` (stereo not drawn) [Sibutramine], for which, in assay [1] (setting [24]), the remaining activity at 1.25 µM turned out to be 95.2%. Moreover, in assay [2] (setting [24]), the remaining activity at 3.75 µM amounted to 98.7%.
`O=C(NCCS(=O)(=O)c1ccc(C(F)(F)F)cn1)c1ccc(Cl)cc1` [GSK3787]: the remaining activity at 1.25 µM in assay [1] (setting [25]) was determined as 91.7%. For the same molecule, the remaining activity at 3.75 µM in assay [2] (setting [25]) amounted to 95.3%.
Regarding `Nc1ccc(/C=C/c2cccc(C(=O)O)n2)cc1` [CB-7921220], in assay [1] (setting [26]), the remaining activity at 1.25 µM worked out at 103%. Further, the remaining activity at 3.75 µM in assay [2] (setting [26]) was 95.7%.
With `COc1ccc(-n2[nH]c3c(cnc4ccccc43)c2=O)cc1` [CGS 9895], the remaining activity at 1.25 µM in assay [1] (setting [27]) turned out to be 99.6%. Further, the remaining activity at 3.75 µM in assay [2] (setting [27]) was found to be 96.5%.
Regarding `O=C(O)C=Cc1ccc(O)cc1` [p-Hydroxycinnamic acid], in assay [1] (setting [28]), the remaining activity at 1.25 µM was 105%. Besides, the remaining activity at 3.75 µM in assay [2] (setting [28]) came out at 103%.
For `CCCCC(=O)N(Cc1ccc(-c2ccccc2-c2nnn[nH]2)cc1)[C@H](C(=O)O)C(C)C` [Valsartan], the figures for the remaining activity at 1.25 µM in assay [1] (setting [29]) and in assay [1] (setting [30]) were 94.7% and 105%, respectively. In addition, the values for the remaining activity at 3.75 µM in assay [2] (setting [29]) and in assay [2] (setting [30]) were 98% and 99.1%, respectively.
With `CC(=O)NCCCC(=O)O` [4-Acetamidobutanoic acid], the remaining activity at 1.25 µM in assay [1] (setting [31]) stood at 110%. For the same molecule, in assay [2] (setting [31]), the remaining activity at 3.75 µM worked out at 106%.
Turning to `CCO[C@@H]1OC(=O)C[C@@H]1NC(=O)[C@@H]1CCCN1C(=O)[C@@H](NC(=O)c1ccc(N)c(Cl)c1)C(C)(C)C` [Belnacasan], the values for the remaining activity at 1.25 µM in assay [1] (setting [32]) and in assay [1] (setting [33]) were 98% and 103%, respectively. For the same molecule, the results for the remaining activity at 3.75 µM in assay [2] (setting [32]) and in assay [2] (setting [33]) were 98.4% and 110%, respectively.
Consider `O=C(O)c1nn(Cc2ccc(Cl)cc2Cl)c2ccccc12` [Lonidamine], for which the remaining activity at 1.25 µM in assay [1] (setting [34]) was determined as 92.8%. Also, the remaining activity at 3.75 µM in assay [2] (setting [34]) worked out at 97%.
Turning to `Cc1ncc2ccccc2c1C#N` [4-Cyano-3-methylisoquinoline], the remaining activity at 1.25 µM in assay [1] (setting [35]) came out at 97.4%. In assay [2] (setting [35]), the remaining activity at 3.75 µM amounted to 95.8%.
